Source: patent publication US20090131391A1, “INHIBITOR FOR DIFFERENTIATION OF HEMATOPOIETIC PRECURSOR CELLS” (OOO "MBF", priority 2006, published 2009)

Tests used:
[1] = tested on: LLC (Lewis lung carcinoma); test: Lewis lung carcinoma growth and metastasis with Platidiam (cisplatin) treatment; format: in vivo, C57B1/6 mice
CD34+ cells = test: Flow cytometry of CD34+ cells in bone marrow and peripheral blood; format: in vivo, mouse
Procedure: The effects of the proposed agent (9-phenyl-symmetric-octahydroselenoxanthene) on mouse hematopoiesis were assayed by flow cytometry. Relative number of CD34+ cells and the density of the antigen were assayed in peripheral blood cells (80,000 cells per sample) and bone marrow cells (40,000 cells per sample). As reported earlier, administration of the proposed agent has no effect on relative number of less differentiated stem cells (CD34+).

[2] = tested on: colony-forming cells in the spleen, CFC-S; test: Exogenous spleen colony assay (CFC-S) after agent and gamma-irradiation of donor mice; format: in vivo
Procedure: Assay of effect of various doses of ionizing radiation on hematopoiesis. 950 female mice of two lines—(CBA×C 57 B 1/6) F1 and (DBA×C 57B1/6) F1—were used in this study. Radiation was administered using a radiation therapy machine “Luch-1” utilizing gamma-rays ^60Co at 0.9 Gy/min. 9-phenyl-symmetric-octahydroselenoxanthene was administered orally in doses 1.0, 5.0, 10 and 20 mg/kg in 0.2 ml of oil. Agent was administered 1, 3 or 7 days prior to radiation treatment of 1.5 Gy; bone marrow was then extracted from donor mice, and cell suspension was injected into lethally irradiated (8 Gy) recipient mice of the same line. Colony-forming activity was assayed by number of exogenous spleen colonies when mice were sacrificed on day 9.
300 female mice of line (CBA×C57B1/6) F1 were used in the experiment. Radiation was administered using a radiation therapy machine “Luch-1” utilizing gamma-rays ^60Co at 0.9 Gy/min. 9-phenyl-symmetric-octahydroselenoxanthene was administered orally in doses 1.0, 5.0, 10 and 20 mg/kg in 0.2 ml of oil 7 days prior to radiation treatment at following doses: 1.5, 2.0, 3.0 and 5.0 Gy. Bone marrow was extracted 10-15 minutes after the treatment and the cell suspension was injected into lethally irradiated (8 Gy) recipient mice. Colony-forming activity was assayed by number of exogenous spleen colonies when mice were sacrificed on day 9.

[3] = tested on: polychromatophil mouse erythrocytes (line C57 B1); test: Micronuclei in peripheral polychromatophil erythrocytes after electromagnetic irradiation; format: in vivo
Procedure: Protective properties of 9-phenyl-symmetric-octahydroselenoxanthene against non-ionizing radiation were examined by studying formation of micronuclei in polychromatophil mouse erythrocytes (line C57 B1). Micronuclei of the interphase nucleus are acentric chromosome fragments. Animals were exposed to electromagnetic radiation in millimeter wavelength range, frequency 39.5 GHz, and wavelength 7.5 mm for 1 hour. Flux density was approximately 3 microW/cm^2, which is 300 fold less than levels posing danger of overheating due to field energy absorption to a biological object.
5 mg/kg of 9-phenyl-symmetric-octahydroselenoxanthene was administered to group 1 (n=5) orally in 0.2 ml of oil 7 days prior to irradiation. Group 2 (n=5) received 0.2 ml of oil only and untreated mice were used as controls. Mice were sacrificed 1 day after irradiation and number of micronuclei was assayed in peripheral polychromatophil erythrocytes (150,000 cells per sample).

[4] = tested on: Lewis lung carcinoma (LLC); test: Lewis lung carcinoma growth index and lung metastases with localized irradiation; format: in vivo, mice; details: for Average number of lung metastases: day 21, surviving animals
Procedure: The number of lung metastases was assayed on day 21 in surviving animals.
As in the previous series, tumor cells were injected subcutaneously into right hind leg at 2.0×10^6 cells/mouse (total of 40 mice).

[5] = Agent administered 1 day prior to analysis, no irradiation
[6] = Agent administered 7 days prior to analysis + irradiation, 1.5 Gy
[7] = Agent administered 7 days prior to analysis, no irradiation
[8] = Inhibitor + localized irradiation
[9] = concurrent use with localized irradiation

## N.N.[Cl][Pt][Cl] [Platidiam (cisplatin), cisplatin]
[1]; C57B1/6 mice with LLC
  Avg number of lung metastases M ± m: 6.2 ± 0.7
  Tumor mass, g M ± m: 4.5 ± 0.5 g
  Tumor volume, sm^3 M ± m: 4.6 ± 0.6 sm^3
  anti-tumor effect (tumor mass and lung metastases): slight but consistent anti-tumor effect

## 9-phenyl-symmetric-octahydroselenoxanthene
CD34+ cells; Agent administered 1 day prior to analysis + irradiation, 1.5 Gy
  Total CD34+ cells in bone marrow, 10^7, Mean: 2.1 10^7
CD34+ cells; [5]
  Total CD34+ cells in bone marrow, 10^7, Mean: 4.0 10^7
  Total CD34+ cells per 1 ml of peripheral blood, 10^3, Mean: 6.8 10^3
CD34+ cells; [6]
  Total CD34+ cells in bone marrow, 10^7, Mean: 1.0 10^7
  Total CD34+ cells per 1 ml of peripheral blood, 10^3, Mean: 3.8 10^3
CD34+ cells; [7]
  Total CD34+ cells in bone marrow, 10^7, Mean: 4.0 10^7
  Total CD34+ cells per 1 ml of peripheral blood, 10^3, Mean: 8.0 10^3
CD34+ cells; blood cells, after 7 days
  number of more differentiated progenitors: decreases
CD34+ cells; blood cells, three experiments
  portion of CD34+ cells on the blood: does not change
CD34+ cells; by day 7 after the agent administration, p<0.05
  density of CD34 antigen on the cell surface: increases
CD34+ cells; flow cytometry
  effect on relative number of less differentiated stem cells (CD34+): no effect
CD34+ cells; peripheral blood and bone marrow composition after irradiation
  effect on differentiation of progenitor cells: blocks differentiation of progenitor cells of the granulocyte/macrophage lineage
[1]; administered 30 minutes prior to chemotherapy with Platidiam (cisplatin)
  effect on tumor growth and number of lung metastases: did not exhibit any significant effect
[2]; 5.0 mg/kg 7 days prior, 1.5 Gy
  cell survival compared with the untreated control: not significantly different
[2]; 5.0 mg/kg 7 days prior, all radiation doses excluding 1.5 Gy (2.0, 3.0, 5.0 Gy)
  Cell survival relative to the irradiated control: 2 fold
[2]; 5.0 mg/kg of the agent alone at various time points prior to bone marrow extraction
  effect on CFC-S number in donor mice: no effect
[2]; 5 mg/kg orally, 1 day prior to irradiation 1.5 Gy
  Number of colonies formed per 10^5 of bone marrow cells, M ± m: 6.4 ± 0.5 per 10^5 of bone marrow cells
[2]; 5 mg/kg orally, 1 day prior, no irradiation
  Number of colonies formed per 10^5 of bone marrow cells, M ± m: 12.5 ± 0.6 per 10^5 of bone marrow cells
[2]; 5 mg/kg orally, 3 days prior to irradiation 1.5 Gy
  Number of colonies formed per 10^5 of bone marrow cells, M ± m: 9.1 ± 0.5 per 10^5 of bone marrow cells
[2]; 5 mg/kg orally, 3 days prior, no irradiation
  Number of colonies formed per 10^5 of bone marrow cells, M ± m: 10.7 ± 0.4 per 10^5 of bone marrow cells
[2]; 5 mg/kg orally, 7 days prior to irradiation 1.5 Gy (Table 1)
  Number of colonies formed per 10^5 of bone marrow cells, M ± m: 12.7 ± 0.7 per 10^5 of bone marrow cells
[2]; 5 mg/kg orally, 7 days prior, no irradiation
  Number of colonies formed per 10^5 of bone marrow cells, M ± m: 11.1 ± 0.7 per 10^5 of bone marrow cells
[2]; 5.0 mg/kg, 1.5 Gy
  persistence of the CFC-S adaptive response: 7 days
[2]; 5.0 mg/kg, 1 day prior to 1.5 Gy (minimal effect)
  increase in CFC-S compared to the irradiated control: 2 fold
[2]; 5.0 mg/kg, 7 days prior to 1.5 Gy (maximal effect)
  decrease of the effects of radiation: 3 fold
[2]; 5 mg/kg, 7 days prior to radiation dose 1.5 Gy (Table 2)
  Number of colonies formed per 10^5 of bone marrow cells, M ± m: 9.2 ± 0.2 per 10^5 of bone marrow cells
[2]; 5 mg/kg, 7 days prior to radiation dose 2.0 Gy
  Number of colonies formed per 10^5 of bone marrow cells, M ± m: 3.6 ± 0.3 per 10^5 of bone marrow cells
[2]; 5 mg/kg, 7 days prior to radiation dose 3.0 Gy
  Number of colonies formed per 10^5 of bone marrow cells, M ± m: 2.1 ± 0.1 per 10^5 of bone marrow cells
[2]; 5 mg/kg, 7 days prior to radiation dose 5.0 Gy
  Number of colonies formed per 10^5 of bone marrow cells, M ± m: 0.6 ± 0.06 per 10^5 of bone marrow cells
[3]; 5 mg/kg orally 7 days prior to electromagnetic irradiation 39.5 GHz, 1 hour, assayed 1 day after irradiation
  Frequency of micronuclei-containing polychromatophil erythrocytes × 10^3: 6.0 ± 2.10 × 10^3
[3]; electromagnetic irradiation
  protection against non-ionizing radiation: confers protection
[4]; [8]
  Growth index: 4.6 ± 0.8
  Average number of lung metastases: 13.4 ± 1.8
[4]; Inhibitor + localized irradiation, 1 day
  Growth index: 1
[4]; Inhibitor + localized irradiation, 4 days
  Growth index: 1.4 ± 0.1
[4]; Inhibitor + localized irradiation, 6 days
  Growth index: 1.7 ± 0.2
[4]; Inhibitor + localized irradiation, 8 days
  Growth index: 1.84 ± 0.3
[4]; Inhibitor + localized irradiation, 11 days
  Growth index: 2.65 ± 0.6
[4]; Inhibitor alone
  Growth index: 7.7 ± 1.7
  Average number of lung metastases: 33.5 ± 2.5
[4]; Inhibitor alone, 1 day
  Growth index: 1
[4]; Inhibitor alone, 4 days
  Growth index: 1.64 ± 0.1
[4]; Inhibitor alone, 6 days
  Growth index: 3.3 ± 0.25
[4]; Inhibitor alone, 8 days
  Growth index: 3.9 ± 0.7
[4]; Inhibitor alone, 11 days
  Growth index: 5.3 ± 0.7
[4]; combination with irradiation
  growth indexes of agent alone versus agent + irradiation: not significantly different
[4]; [9]
  effect on metastasis: does not significantly increase metastasis
  protection of tumor cells from effects of radiation: does not protect the tumor cells from effects of radiation
[4]; inhibitor alone vs control
  effect on tumor growth: does not affect tumor growth
[4]; non-irradiated and irradiated tumor-bearing mice, day 21
  influence on metastatic processes: does not influence metastatic processes significantly
